pIC50: −log10 of the molar value.
Biological target: T1, human 11β-HSD1 (Homo sapiens, UniProt P28845)
Test: biochemical
Conditions: Biological Test Example 2 IC50 Range, microsomes from CHO cells overexpressing human 11β-HSD1, SPA
Procedure: All reactions are carried out at room temperature in 96 well clear flexible PET Microbeta plates (PerkinElmer). […] The reaction is stopped by adding 50 μl of the SPA beads suspension containing 10 μM 18β-glycyrrhetinic acid, 5 mg/ml protein A coated YSi SPA beads (GE Healthcare) and 3.3 μg/ml of anti-cortisol antibody (East Coast Biologics) in Superblock buffer (Bio-Rad). The plates are then shaken for 120 minutes at room temperature, and the SPA signal corresponding to [^3H]cortisol is measured on a Microbeta plate reader.

T1 sequence (P28845 whole entry): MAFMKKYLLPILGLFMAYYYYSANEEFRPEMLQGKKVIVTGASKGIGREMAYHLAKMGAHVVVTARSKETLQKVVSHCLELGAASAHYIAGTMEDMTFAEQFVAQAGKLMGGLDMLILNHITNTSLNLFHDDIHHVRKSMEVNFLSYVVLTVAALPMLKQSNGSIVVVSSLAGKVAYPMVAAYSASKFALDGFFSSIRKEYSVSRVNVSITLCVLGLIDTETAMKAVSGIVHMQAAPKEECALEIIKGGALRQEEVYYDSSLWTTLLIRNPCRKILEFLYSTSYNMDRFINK

pIC50	SMILES
< 7.00	CC(C)(C)OC(=O)N1CCCC12CCN(C(=O)OC1C3CC4CC1CC(C(N)=O)(C4)C3)C2 (single isomer, unassigned) [Example 30 Isomer 1, 1-tert-butyl 7-(cis-1-carbamoyl-4-adamantyl) 1,7-diazaspiro[4.4]nonane-1,7-dicarboxylate]
< 7.00	CC(C)OC(=O)N[C@@H]1CCN(C(=O)OC2C3CC4CC2CC(C(N)=O)(C4)C3)C1 (single isomer, unassigned) [Example 24 Isomer 1]

Biological target: T1, human 11β-HSD1
Test: not given
Conditions: at 100 nm

Biological Test Example 2 Average % inhibition at 100 nm [%]	SMILES
15.9	CC(C)(C)OC(=O)N1CCCC12CCN(C(=O)OC1C3CC4CC1CC(C(N)=O)(C4)C3)C2 (single isomer, unassigned) [Example 30 Isomer 1, 1-tert-butyl 7-(cis-1-carbamoyl-4-adamantyl) 1,7-diazaspiro[4.4]nonane-1,7-dicarboxylate]
2.0	CC(C)OC(=O)N[C@@H]1CCN(C(=O)OC2C3CC4CC2CC(C(N)=O)(C4)C3)C1 (single isomer, unassigned) [Example 24 Isomer 1]

Biological target: T2, purified recombinant 11β-HSD1 (Homo sapiens, UniProt P28845)
T2 construct: made in house; host or cells: E. coli
Test: Biological Test Example 1: inhibition of purified 11β-HSD1, Scintillation Proximity Assay
Format: biochemical
Conditions: purified recombinant 11β-HSD1 (expressed in E. coli), SPA; read-out: Biological Test Example 1 IC50 Range
Procedure: The inhibition of purified 11β-HSD1 by compounds of Formula I is measured using a Scintillation Proximity Assay. […] The reaction is then incubated for 90 minutes, and stopped by adding 50 μl of SPA bead mix (18-β-glycyrrhetinic acid, 10 μM final, 5 mg/ml protein A coated YSi SPA beads, and 1 ug/ml α-cortisol antibody (East Coast Biologics)). The plate is shaken for 120 minutes, and the radioactivity corresponding to ^3H cortisol is measured on a Wallac Microbeta.

T2 sequence (P28845 whole entry, species assumed): as the sequence (P28845 whole entry) above

pIC50	SMILES
> 7.00	CC(C)(C)OC(=O)N[C@H]1CCCN(C(=O)NC2C3CC4CC(C3)CC2C4)C1 (stereo partly drawn) [Example 57, (S)-tert-butyl 1-(2-adamantylcarbamoyl)piperidin-3-ylcarbamate]
> 7.00	CC(C)(C)OC(=O)N[C@@H]1CCCN(C(=O)NC2C3CC4CC(C3)CC2C4)C1 (stereo partly drawn) [Example 56, (R)-tert-butyl 1-(2-adamantylcarbamoyl)piperidin-3-ylcarbamate]
> 7.00	CN(C(=O)OC(C)(C)C)C1CCN(C(=O)NC2C3CC4CC(C3)CC2C4)C1 (centres unmarked) [Example 55, tert-butyl 1-(2-adamantylcarbamoyl)pyrrolidin-3-yl(methyl)carbamate]
6.00 to 7.00	CC(C)(C)OC(=O)N[C@H]1CCN(C(=O)NC2C3CC4CC(C3)CC2C4)C1 (stereo partly drawn) [Example 47, (S)-tert-butyl 1-(2-adamantylcarbamoyl)pyrrolidin-3-ylcarbamate]
> 7.00	CC(C)(C)OC(=O)NC1CN(C(=O)NC2C3CC4CC(C3)CC2C4)C1 (centres unmarked) [Example 51, tert-butyl 1-(2-adamantylcarbamoyl)azetidin-3-ylcarbamate]
6.00 to 7.00	COC(=O)N[C@@H]1CCN(C(=O)NC2C3CC4CC(C3)CC2C4)C1 (stereo partly drawn) [Example 48, (R)-methyl 1-(2-adamantylcarbamoyl)pyrrolidin-3-ylcarbamate]
> 7.00	CC(C)(C)OC(=O)N1CCC2CN(C(=O)OC3C4CC5CC(C4)CC3C5)CC21 (racemic) [Example 11, (±)-1-tert-butyl 5-(2-adamantyl) hexahydropyrrolo[3,4-b]pyrrole-1,5-dicarboxylate]
> 7.00	CC(C)(C)OC(=O)NCC1CN(C(=O)NC2C3CC4CC(C3)CC2C4)C1 (centres unmarked) [Example 52, tert-butyl (1-(2-adamantylcarbamoyl)azetidin-3-yl)methylcarbamate]
6.00 to 7.00	CC(C)(C)OC(=O)NC1CCN(C(=O)NC2C3CC4CC(C3)CC2C4)CC1 (centres unmarked) [Example 53, tert-butyl 1-(2-adamantylcarbamoyl)piperidin-4-ylcarbamate]
> 7.00	CC(C)(C)OC(=O)NC[C@@H]1CCN(C(=O)NC2C3CC4CC(C3)CC2C4)C1 (stereo partly drawn) [Example 54, (S)-tert-butyl (1-(2-adamantylcarbamoyl)pyrrolidin-3-yl)methylcarbamate]
> 7.00	CC(C)(C)OC(=O)N[C@@H]1CCN(C(=O)NC2C3CC4CC(C3)CC2C4)C1 (stereo partly drawn) [Example 46, (R)-tert-butyl 1-(2-adamantylcarbamoyl)pyrrolidin-3-ylcarbamate]

SMILES	pIC50
CC(C)(C)OC(=O)NCC1CN(C(=O)OC2C3CC4CC(C3)CC2C4)C1 (centres unmarked) [Example 1, 2-adamantyl 3-((tert-butoxycarbonylamino)methyl)azetidine-1-carboxylate]	> 7.00
CC(C)(C)OC(=O)N[C@@H]1CCCN(C(=O)OC2C3CC4CC(C3)CC2C4)C1 (stereo partly drawn) [Example 8, (3R)-(2-adamantyl) 3-(tert-butoxycarbonylamino)piperidine-1-carboxylate]	> 7.00
